Measured values from patent US20100010049A1, “Novel Tyrosinase inhibitors and pharmaceutical/cosmetic applications thereof” (GALDERMA RESEARCH & DEVELOPMENT, priority 2006, published 2010).

Legend:
[1] = target: T1, tyrosinase (Mus musculus, UniProt P11344); assay: Tyrosinase activity inhibition assay (B16F1 cell lysate, L-tyrosine substrate, MBTH, absorbance at 520 nm); format: biochemical; conditions: lysate of B16F1 cells (murine melanoma line) as tyrosinase source, 37° C., reading at 520 nm after 6 hours
T1 construct: the supernatant obtained constitutes the cell lysate used as tyrosinase source in the enzymatic assay; endogenous in cells; host or cells: B16F1 murine melanoma cells, cultured with alpha-MSH; detergent lysate supernatant
T1 sequence (P11344 19-533): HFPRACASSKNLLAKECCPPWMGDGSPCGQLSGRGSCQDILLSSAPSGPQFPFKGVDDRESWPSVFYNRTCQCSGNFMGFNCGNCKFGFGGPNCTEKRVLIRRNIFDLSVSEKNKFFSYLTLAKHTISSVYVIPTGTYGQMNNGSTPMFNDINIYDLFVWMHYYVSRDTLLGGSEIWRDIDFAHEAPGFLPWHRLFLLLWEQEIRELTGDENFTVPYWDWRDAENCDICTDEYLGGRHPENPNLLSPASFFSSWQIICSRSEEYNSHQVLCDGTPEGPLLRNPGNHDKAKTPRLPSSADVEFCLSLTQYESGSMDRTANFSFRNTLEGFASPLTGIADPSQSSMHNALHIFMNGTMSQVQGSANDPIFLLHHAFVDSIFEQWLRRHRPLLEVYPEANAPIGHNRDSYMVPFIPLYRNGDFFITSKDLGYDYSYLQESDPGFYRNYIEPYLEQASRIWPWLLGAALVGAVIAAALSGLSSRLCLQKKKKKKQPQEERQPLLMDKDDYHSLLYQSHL
Experimental: The activity of the inhibitors is measured starting from a lysate of B16F1 cells (murine melanoma line). In the presence of the L-tyrosine substrate, the tyrosinase present in these cells catalyses the hydroxylation of L-tyrosine to give L-DOPA and then the oxidation of the L-DOPA to give dopaquinone. In the presence of MBTH (3-methyl-2-benzothiazolinone hydrazone), the dopaquinone is trapped so as to form a pink complex which absorbs at 520 nm.
The B16F1 cells are cultured in DMEM medium+10% foetal calf serum+10^−9 M α-MSH for 4 days at 37° C. under 7% CO2. They are treated with trypsin, washed with PBS, counted and pelleted. The pellet is taken up at 10^7 cells/ml in lysis buffer (10 mM sodium phosphate, pH 6.8−1% Igepal) and the suspension is treated with ultrasound for 10 seconds. After centrifugation for 30 minutes at 4000 rpm, the supernatant obtained constitutes the cell lysate used as tyrosinase source in the enzymatic assay.
The assays are carried out in duplicate in 384-well plates in a total volume of 50 μl. Each well contains: • 40 μl of solution containing 1.25 mM L-tyrosine, 6.25 μM L-DOPA (cofactor) and 3.75 mM MBTH in buffer B (62.25 mM sodium phosphate, pH 6.8-2.5% dimethylformamide), • 5 μl of inhibitor diluted in DMSO, • 5 μl of cell lysate diluted to ½ in 50 mM Tris HCl buffer, pH 7.5.
The plate is incubated at 37° C. and a spectrophotometric reading is carried out at 520 nm after incubating for 6 hours. In order to avoid any possible absorption of the products, the system employs corrected absorbance (absorbance at time 6 h—absorbance at time zero).
The inhibitors are assayed in terms of dose-response so as to calculate an IC50 (dose which inhibits 50% of the enzymatic activity).
Several internal controls are added to each experiment: • control for 100% activity: the 5 μl of inhibitor are replaced with 5 μl of DMSO, • control for 50% activity: the 5 μl of inhibitor are replaced with 5 μl of phenylthiourea at 300 μM in DMSO, • control for 0% activity: the L-tyrosine substrate is replaced with buffer B.

| SMILES | melting point | IC50 [1] |
| --- | --- | --- |
| COc1ccc(-c2c[nH]c(=S)n2O)cc1 [Compound 6, 1-hydroxy-5-(4-methoxyphenyl)-1,3-dihydroimidazole-2-thione] | 150 °C | 820 nM |
| On1c(-c2ccccc2)c[nH]c1=S [Compound 4, 1-hydroxy-5-phenyl-1,3-dihydroimidazole-2-thione] | – | 890 nM |
| On1cc(-c2ccccc2)[nH]c1=S [Compound 5, 1-hydroxy-4-phenyl-1,3-dihydroimidazole-2-thione] | 196.3 °C | – |
| COc1ccc(-c2cn(O)c(=S)[nH]2)cc1 [Compound 7, 1-hydroxy-4-(4-methoxyphenyl)-1,3-dihydroimidazole-2-thione] | 160 °C | – |
| S=c1[nH]ccn1OCc1cccnc1 [Compound 2, 1-(pyridin-3-ylmethoxy)-1,3-dihydroimidazole-2-thione] | 128 to 129 °C | – |
| On1c(-c2cccs2)c[nH]c1=S [Compound 8, 1-hydroxy-5-(thiophen-2-yl)-1,3-dihydroimidazole-2-thione] | 183.6 to 184.8 °C | 3700 nM |

Continued, values first:

| melting point | IC50 [1] | SMILES |
| --- | --- | --- |
| 111 to 111.8 °C | – | COn1cc[nH]c1=S [Compound 1, 1-methoxy-1,3-dihydroimidazole-2-thione] |
| 56.9 to 57.5 °C | 72000 nM | COn1ccn(C)c1=S [Compound 3, 1-methoxy-3-methyl-1,3-dihydroimidazole-2-thione] |
